In general, GI50 refers to the concentration that inhibits growth by half. The TGI is the concentration at which net growth stops.

What all share (type): functional
The nature of experiment [1]: Cytotoxicity against Homo sapiens (human) ovarian cancer cells after 48 hr by SRB assay. To be noted: Cancer cell lines.
The next experiment concerns MCF7. As to the kind of experiment: Cytotoxicity against Homo sapiens (human) MCF7 cells assessed as cellular growth after 48 hr by Alamar blue assay. Details: concentration or dose not given beside the values. For orientation: The colour change of resazurin is a common sign of viable cells or microbes.
The nature of experiment [2]: Cytotoxicity against Homo sapiens (human) non-small cell lung cancer cells after 48 hr by SRB assay. To be noted: Cancer cell lines. In general terms: The SRB assay estimates cell density from bound dye.
Experiment [3] in a line: Cytotoxicity against Homo sapiens (human) leukemia cells after 48 hr by SRB assay. The settings on record: Leukemia cell.
Experiment [4] can be described thus: Cytotoxicity against Homo sapiens (human) prostate cancer cells after 48 hr by SRB assay. To be noted: Cancer cell lines.
Experiment [5] is described as follows: Cytotoxicity against Homo sapiens (human) breast cancer cells after 48 hr by SRB assay. To be noted: Cancer cell lines; for LC50 (concentration giving 50% net cell kill): pooled result: one value given for 9 cell lines, strains, targets or settings.
The nature of experiment [6]: Cytotoxicity against Homo sapiens (human) renal cancer cells after 48 hr by SRB assay. The settings on record: Cancer cell lines.
The nature of experiment [7]: Cytotoxicity against Homo sapiens (human) CNS cancer cells after 48 hr by SRB assay. To be noted: Cancer cell lines.
The nature of experiment [8]: Cytotoxicity against Homo sapiens (human) melanoma cellsafter 48 hr by SRB assay. The settings on record: Melanoma cell.
The test system of another experiment is SF-268. The experiment can be described thus: Cytotoxicity against Homo sapiens (human) SF268 cells assessed as cellular growth after 48 hr by Alamar blue assay. Also noted: concentration or dose not given beside the values.
A further experiment deals with NCI-H460. As to the kind of experiment: Cytotoxicity against Homo sapiens (human) NCI-H460 cells assessed as cellular growth after 48 hr by Alamar blue assay. Details: concentration or dose not given beside the values.
Experiment [9] is described as follows: Cytotoxicity against Homo sapiens (human) colon cancer cells after 48 hr by SRB assay. The settings on record: Cancer cell lines.

Structures are written as SMILES.

`COc1ccc(OC)c(-c2cc(-c3ccc(Cl)cc3)nn2-c2ccc(S(N)(=O)=O)cc2)c1`: the concentration for 50% growth inhibition (GI50) is 16.9 µM in [1]; 10.9 µM in experiment [2]; 4.44 µM in experiment [3]; 7.86 µM in [4]; 11.5 µM in [5]; 13.5 µM in experiment [6]. In addition, the GI50 in experiment [7] worked out at 16.2 µM; in experiment [8] it was 12.8 µM; in experiment [9], 0.95 µM. For the same molecule, the TGI in experiment [1] was 50.8 µM; in experiment [2], 44.3 µM; in [3], 52.1 µM; in experiment [4], 20.8 µM; in experiment [5], 34 µM; in [6], 39.5 µM. The TGI in experiment [7] stood at 37.2 µM; in experiment [8], 36.7 µM; in [9], 38.4 µM. For the same molecule, the Activity in the experiment on MCF7, in the experiment with SF-268 and in the experiment with NCI-H460 was less than 32% in each case. Besides, in [5], the LC50 (concentration giving 50% net cell kill) was determined as 74.7 µM.

Regarding `COc1ccc(OC)c(-c2cc(-c3ccccc3)nn2-c2ccc(S(N)(=O)=O)cc2)c1`, the GI50 in experiment [1] amounted to 13.6 µM; in [2], 31.4 µM; in [3], 6.94 µM; in experiment [4], 13.9 µM; in [5] it was 12.3 µM; in [6], 13 µM. Also, the figures for the 50% growth inhibitory concentration (GI50) in experiment [7], in [8] and in [9] were 15 µM, 15.3 µM and 11.9 µM, respectively. In addition, the TGI was found to be 43.7 µM in experiment [1]; 40.7 µM in [2]; 68.5 µM in experiment [3]; 28.8 µM in experiment [4]; 32.9 µM in experiment [5]; 29.8 µM in experiment [6]. The TGI in experiment [7] came to 31.1 µM; in [8], 40.8 µM; in experiment [9], 27.5 µM. For the same molecule, the Activity with MCF7, in the experiment on SF-268 and in the experiment on NCI-H460 was less than 32% each time. Moreover, the LC50 (concentration giving 50% net cell kill) in experiment [5] turned out to be 73 µM.

As to `Cc1ccc(-c2cc(C3=CC(=O)C=CC3=O)n(-c3ccc(S(N)(=O)=O)cc3)n2)cc1`, the 50% growth inhibitory concentration (GI50) in [1] stood at 67.4 µM; in experiment [2], 53.5 µM; in experiment [3], 37.4 µM; in experiment [4], 36.5 µM; in [5] it was 51.5 µM; in [6], 55.6 µM. Also, the GI50 in [7] came to 65.3 µM; in experiment [8], 69.4 µM; in experiment [9] it was 42.4 µM. The TGI in experiment [1] was 100 µM; in experiment [2], 100 µM; in experiment [3] it was 94 µM; in experiment [4], 100 µM; in experiment [5] it was 95.5 µM; in experiment [6], 86.8 µM. For the same molecule, the TGI was 100 µM in experiment [7], 97.3 µM in experiment [8] and 88.8 µM in experiment [9]. The Activity in the experiment with MCF7, with SF-268 and with NCI-H460 was less than 32% each time. Further, the LC50 (concentration giving 50% net cell kill) in experiment [5] was determined as 99.2 µM.

On to `CC(=O)NS(=O)(=O)c1ccc(-n2nc(-c3ccccc3)cc2-c2cc(O)ccc2O)cc1`, for which the GI50 in [1] is 100 µM; in [2], 93.9 µM; in [3] it was 93.6 µM; in [4], 100 µM; in experiment [5] it was 91.3 µM; in [6], 78.1 µM. For the same molecule, the GI50 in experiment [7] is 90.4 µM; in [8], 84.8 µM; in experiment [9], 78.6 µM. Further, the total growth inhibition concentration (TGI) in experiment [1], in experiment [2], in experiment [3], in [4], in experiment [5] and in [6] was 100 µM throughout. Further, the TGI in experiment [7], in experiment [8] and in [9] was 100 µM throughout. The Activity in the experiment with MCF7, in the experiment with SF-268 and with NCI-H460 was less than 32% throughout. In experiment [5], the LC50 (concentration giving 50% net cell kill) came to 100 µM.

As to `Oc1ccc(O)c(-c2cc(-c3ccccc3)nn2-c2ccccc2)c1`, the 50% growth inhibitory concentration (GI50) turned out to be 37.6 µM in experiment [1]; 26.9 µM in experiment [2]; 35.7 µM in [3]; 16.7 µM in experiment [4]; 17.1 µM in [5]; 22.6 µM in experiment [6]. In addition, the values for the GI50 in experiment [7], in [8] and in [9] were 18.6 µM, 22.6 µM and 28.5 µM, respectively. Moreover, the TGI was found to be 75.2 µM in [1]; 63.6 µM in [2]; 100 µM in experiment [3]; 100 µM in experiment [4]; 75.7 µM in [5]; 67.3 µM in experiment [6]. For the same molecule, the TGI is 71.2 µM in experiment [7], 63.9 µM in experiment [8] and 77.4 µM in experiment [9]. Besides, the Activity in the experiment with MCF7, in the experiment on SF-268 and with NCI-H460 was less than 32% each time. In addition, the LC50 (concentration giving 50% net cell kill) in [5] was found to be 91.3 µM.

Consider `CC(=O)NS(=O)(=O)c1ccc(-n2nc(-c3ccc(Cl)cc3)cc2-c2cc(O)ccc2O)cc1`, for which the GI50 turned out to be 44.6 µM in experiment [1]; 36.2 µM in experiment [2]; 37.4 µM in experiment [3]; 17.7 µM in experiment [4]; 55.3 µM in experiment [5]; 23.5 µM in [6]. Also, the values for the concentration for 50% growth inhibition (GI50) in experiment [7], in experiment [8] and in [9] were 38.5 µM, 36.2 µM and 37.6 µM, respectively. In addition, the total growth inhibition concentration (TGI) in experiment [1] worked out at 81.2 µM; in experiment [2] it was 73.7 µM; in experiment [3], 92.6 µM; in experiment [4], 38.8 µM; in [5] it was 82.1 µM; in experiment [6], 59.8 µM. Moreover, the concentration for total growth inhibition (TGI) in experiment [7] was 93.9 µM; in experiment [8], 60.1 µM; in experiment [9] it was 66.5 µM. Also, the Activity in the experiment with MCF7, in the experiment with SF-268 and in the experiment on NCI-H460 was less than 32% throughout. In [5], this molecule registered an LC50 (concentration giving 50% net cell kill) of 91.2 µM.

As for `NS(=O)(=O)c1ccc(-n2nc(-c3ccccc3)cc2-c2cc(O)ccc2O)cc1`, the concentration for 50% growth inhibition (GI50) in experiment [1] turned out to be 81.3 µM; in [2], 88.9 µM; in experiment [3], 49.6 µM; in experiment [4], 77.6 µM; in [5], 83.9 µM; in [6], 88.1 µM. Besides, the GI50 in [7] amounted to 86.6 µM; in [8], 61.9 µM; in experiment [9], 75.7 µM. Also, the TGI in experiment [1] was found to be 98.2 µM; in experiment [2], 100 µM; in experiment [3], 100 µM; in experiment [4], 100 µM; in experiment [5] it was 96 µM; in [6] it was 99.3 µM. Also, the total growth inhibition concentration (TGI) in experiment [7] was 100 µM; in experiment [8], 92 µM; in experiment [9], 100 µM. Moreover, the Activity in the experiment on MCF7, with SF-268 and with NCI-H460 was less than 32% throughout. The molecule further had an LC50 (concentration giving 50% net cell kill) in experiment [5] of 100 µM.

On to `NS(=O)(=O)c1ccc(-n2nc(-c3ccc(Cl)cc3)cc2C2=CC(=O)C=CC2=O)cc1`, for which the GI50 was 26.5 µM in experiment [1]; 23.9 µM in experiment [2]; 31.8 µM in [3]; 21.6 µM in experiment [4]; 21.9 µM in experiment [5]; 23.1 µM in [6]. For the same molecule, the values for the 50% growth inhibitory concentration (GI50) in [7], in [8] and in [9] were 23.7 µM, 26.7 µM and 17.6 µM, respectively. For the same molecule, the TGI is 65.7 µM in experiment [1]; 71.1 µM in experiment [2]; 84.6 µM in [3]; 71.9 µM in experiment [4]; 62.6 µM in experiment [5]; 50.2 µM in experiment [6]. Further, the total growth inhibition concentration (TGI) in [7] was found to be 53 µM; in [8], 52.7 µM; in [9], 37.4 µM. Moreover, the Activity in the experiment on MCF7, in the experiment with SF-268 and with NCI-H460 was less than 32% throughout. The molecule also gave an LC50 (concentration giving 50% net cell kill) in experiment [5] of 92.3 µM.

Regarding `O=C(CC1C(=O)NN(c2ccc(Br)cc2)C1=O)c1cc(O)ccc1O` (stereo not given), the GI50 came out at 26.2 µM in experiment [1]; 21.7 µM in experiment [2]; 34.1 µM in experiment [3]; 22.7 µM in experiment [4]; 16.1 µM in [5]; 23.7 µM in [6]. Moreover, the values for the GI50 in experiment [7], in experiment [8] and in experiment [9] were 18.8 µM, 22 µM and 17.7 µM, respectively. The concentration for total growth inhibition (TGI) in experiment [1] worked out at 44.3 µM; in experiment [2], 48.4 µM; in experiment [3], 50 µM; in [4], 50 µM; in experiment [5] it was 40.9 µM; in experiment [6] it was 46.9 µM. For the same molecule, the figures for the TGI in experiment [7], in experiment [8] and in experiment [9] were 40.5 µM, 42.4 µM and 43.3 µM, respectively. The Activity in the experiment on MCF7, with SF-268 and in the experiment with NCI-H460 was less than 32% in each case. In experiment [5], this molecule registered an LC50 (concentration giving 50% net cell kill) of 49.9 µM.

As to `Oc1ccc(O)c(-c2cc(-c3ccc(Cl)cc3)nn2-c2ccccc2)c1`, the GI50 was found to be 8.01 µM in experiment [1]; 6.85 µM in experiment [2]; 3.43 µM in experiment [3]; 14.6 µM in experiment [4]; 9.25 µM in experiment [5]; 8.86 µM in [6]. Further, the values for the 50% growth inhibitory concentration (GI50) in experiment [7], in experiment [8] and in experiment [9] were 17.9 µM, 8.79 µM and 5.75 µM, respectively. The TGI was 60.4 µM in experiment [1]; 33.2 µM in experiment [2]; 49.7 µM in experiment [3]; 30.7 µM in [4]; 41.1 µM in experiment [5]; 32 µM in experiment [6]. Moreover, the TGI is 34.6 µM in experiment [7], 32.5 µM in experiment [8] and 16.8 µM in [9]. Moreover, the Activity with MCF7, in the experiment with SF-268 and in the experiment with NCI-H460 was less than 32% each time. The LC50 (concentration giving 50% net cell kill) in experiment [5] stood at 76.1 µM.

Source of the values: ChEMBL document CHEMBL3046588, “Design, synthesis, and in vitro evaluation of cytotoxic activity of new substituted 1,4-benzoquinones and hydroquinones” (2007).
